Source: the NIST ThermoML archive (doi:10.1021/je1000796)

Experiment: mn = molality of the nth substance listed, in mol/kg
Settings: 101 kPa, Liquid; for viscosity: Capillary tube (Ostwald / Ubbelohde) method

COC(=O)[C@H](c1ccccc1Cl)N1CCc2sccc2C1.O=S(=O)(O)O [(S)-(+)-Clopidogrel hydrogen sulfate] + CCO
Settings | mass density [kg/m3] | viscosity [mPa·s]
278.15 K, m1 = 0.001 | 801 | 1.632
278.15 K, m1 = 0.003 | 801.6 | 1.638
278.15 K, m1 = 0.005 | 802.3 | 1.645
278.15 K, m1 = 0.007 | 802.9 | 1.665
278.15 K, m1 = 0.009 | 803.5 | 1.671
278.15 K, m1 = 0.011 | 803.9 | 1.674
278.15 K, m1 = 0.013 | 804.5 | 1.68
278.15 K, m1 = 0.015 | 805 | 1.687
283.15 K, m1 = 0.001 | 798 | 1.476
283.15 K, m1 = 0.003 | 798.4 | 1.484
283.15 K, m1 = 0.005 | 798.9 | 1.489
283.15 K, m1 = 0.007 | 799.3 | 1.502
283.15 K, m1 = 0.009 | 799.8 | 1.505
283.15 K, m1 = 0.011 | 800.1 | 1.508
283.15 K, m1 = 0.013 | 800.6 | 1.514
283.15 K, m1 = 0.015 | 800.9 | 1.523
288.15 K, m1 = 0.001 | 794.2 | 1.335
288.15 K, m1 = 0.003 | 794.5 | 1.343
288.15 K, m1 = 0.005 | 794.9 | 1.346
288.15 K, m1 = 0.007 | 795.4 | 1.359
288.15 K, m1 = 0.009 | 795.9 | 1.36
288.15 K, m1 = 0.011 | 796.2 | 1.361
288.15 K, m1 = 0.013 | 796.5 | 1.365
288.15 K, m1 = 0.015 | 796.8 | 1.373
293.15 K, m1 = 0.001 | 790.4 | 1.211
293.15 K, m1 = 0.003 | 790.8 | 1.214
293.15 K, m1 = 0.005 | 791 | 1.223
293.15 K, m1 = 0.007 | 791.4 | 1.235
293.15 K, m1 = 0.009 | 791.8 | 1.236
293.15 K, m1 = 0.011 | 792.2 | 1.238
293.15 K, m1 = 0.013 | 792.8 | 1.243
293.15 K, m1 = 0.015 | 793 | 1.25
298.15 K, m1 = 0.001 | 786.1 | 1.101
298.15 K, m1 = 0.003 | 786.6 | 1.103
298.15 K, m1 = 0.005 | 786.9 | 1.109
298.15 K, m1 = 0.007 | 787.2 | 1.12
298.15 K, m1 = 0.009 | 787.7 | 1.121
298.15 K, m1 = 0.011 | 788 | 1.123
298.15 K, m1 = 0.013 | 788.4 | 1.126
298.15 K, m1 = 0.015 | 788.7 | 1.131
303.15 K, m1 = 0.001 | 781.2 | 0.9985
303.15 K, m1 = 0.003 | 781.8 | 1.003
303.15 K, m1 = 0.005 | 782.1 | 1.006
303.15 K, m1 = 0.007 | 782.5 | 1.012
303.15 K, m1 = 0.009 | 782.9 | 1.015
303.15 K, m1 = 0.011 | 783.2 | 1.017
303.15 K, m1 = 0.013 | 783.4 | 1.019
303.15 K, m1 = 0.015 | 783.9 | 1.023
308.15 K, m1 = 0.001 | 778.2 | 0.9134
308.15 K, m1 = 0.003 | 778.5 | 0.9149
308.15 K, m1 = 0.005 | 778.7 | 0.9166
308.15 K, m1 = 0.007 | 778.9 | 0.9224
308.15 K, m1 = 0.009 | 779.1 | 0.9236
308.15 K, m1 = 0.011 | 779.4 | 0.9256
308.15 K, m1 = 0.013 | 779.8 | 0.928
308.15 K, m1 = 0.015 | 780.2 | 0.9307
313.15 K, m1 = 0.001 | 773.7 | 0.8328
313.15 K, m1 = 0.003 | 773.9 | 0.8348
313.15 K, m1 = 0.005 | 774.2 | 0.8359
313.15 K, m1 = 0.007 | 774.5 | 0.8409
313.15 K, m1 = 0.009 | 774.8 | 0.8441
313.15 K, m1 = 0.011 | 775.2 | 0.8458
313.15 K, m1 = 0.013 | 775.7 | 0.8473
313.15 K, m1 = 0.015 | 776 | 0.8496

COC(=O)[C@H](c1ccccc1Cl)N1CCc2sccc2C1.O=S(=O)(O)O [(S)-(+)-Clopidogrel hydrogen sulfate] + CO
Settings | mass density [kg/m3] | viscosity [mPa·s]
278.15 K, m1 = 0.001 | 803.1 | 0.7441
278.15 K, m1 = 0.003 | 803.5 | 0.747
278.15 K, m1 = 0.005 | 804 | 0.7487
278.15 K, m1 = 0.007 | 804.4 | 0.7505
278.15 K, m1 = 0.009 | 804.8 | 0.7525
278.15 K, m1 = 0.011 | 805.2 | 0.7529
278.15 K, m1 = 0.013 | 805.9 | 0.7577
278.15 K, m1 = 0.015 | 806.4 | 0.7582
283.15 K, m1 = 0.001 | 799.2 | 0.6924
283.15 K, m1 = 0.003 | 799.5 | 0.6943
283.15 K, m1 = 0.005 | 800.1 | 0.6961
283.15 K, m1 = 0.007 | 800.4 | 0.698
283.15 K, m1 = 0.009 | 801.1 | 0.6998
283.15 K, m1 = 0.011 | 801.5 | 0.7006
283.15 K, m1 = 0.013 | 802 | 0.7039
283.15 K, m1 = 0.015 | 802.6 | 0.705
288.15 K, m1 = 0.001 | 795.4 | 0.6416
288.15 K, m1 = 0.003 | 795.8 | 0.6446
288.15 K, m1 = 0.005 | 796.2 | 0.6475
288.15 K, m1 = 0.007 | 796.4 | 0.6487
288.15 K, m1 = 0.009 | 797.1 | 0.6494
288.15 K, m1 = 0.011 | 797.5 | 0.6502
288.15 K, m1 = 0.013 | 798.2 | 0.6527
288.15 K, m1 = 0.015 | 799 | 0.6538
293.15 K, m1 = 0.001 | 792.3 | 0.6006
293.15 K, m1 = 0.003 | 792.5 | 0.6022
293.15 K, m1 = 0.005 | 792.9 | 0.6042
293.15 K, m1 = 0.007 | 793.3 | 0.6049
293.15 K, m1 = 0.009 | 793.6 | 0.606
293.15 K, m1 = 0.011 | 794 | 0.6077
293.15 K, m1 = 0.013 | 794.5 | 0.6096
293.15 K, m1 = 0.015 | 795.3 | 0.6111
298.15 K, m1 = 0.001 | 788.1 | 0.5596
298.15 K, m1 = 0.003 | 788.2 | 0.562
298.15 K, m1 = 0.005 | 788.4 | 0.5631
298.15 K, m1 = 0.007 | 788.7 | 0.5638
298.15 K, m1 = 0.009 | 789 | 0.5652
298.15 K, m1 = 0.011 | 789.3 | 0.5661
298.15 K, m1 = 0.013 | 790 | 0.5684
298.15 K, m1 = 0.015 | 790.8 | 0.5694
303.15 K, m1 = 0.001 | 784 | 0.5212
303.15 K, m1 = 0.003 | 784.1 | 0.5236
303.15 K, m1 = 0.005 | 784.3 | 0.5254
303.15 K, m1 = 0.007 | 784.5 | 0.5262
303.15 K, m1 = 0.009 | 785 | 0.5269
303.15 K, m1 = 0.011 | 785.3 | 0.5276
303.15 K, m1 = 0.013 | 785.8 | 0.5304
303.15 K, m1 = 0.015 | 786.6 | 0.5315
308.15 K, m1 = 0.001 | 779.7 | 0.487
308.15 K, m1 = 0.003 | 779.8 | 0.4898
308.15 K, m1 = 0.005 | 780 | 0.4901
308.15 K, m1 = 0.007 | 780.3 | 0.4906
308.15 K, m1 = 0.009 | 780.7 | 0.4919
308.15 K, m1 = 0.011 | 781.1 | 0.4936
308.15 K, m1 = 0.013 | 781.5 | 0.4943
308.15 K, m1 = 0.015 | 782.3 | 0.4967
313.15 K, m1 = 0.001 | 775.3 | 0.4567
313.15 K, m1 = 0.003 | 775.5 | 0.4589
313.15 K, m1 = 0.005 | 775.7 | 0.4595
313.15 K, m1 = 0.007 | 775.9 | 0.4601
313.15 K, m1 = 0.009 | 776 | 0.4604
313.15 K, m1 = 0.011 | 776.4 | 0.462
313.15 K, m1 = 0.013 | 777 | 0.4631
313.15 K, m1 = 0.015 | 777.8 | 0.4647
